In patent publication US12065443B2, “Compounds and pharmaceutical compositions thereof for the treatment of diseases” (priority 2017, dated 2024):

Experiments:
[1] = molecular target: T1, SIK1 (Homo sapiens, UniProt P57059); assay: biochemical; details: 33P radioactive SIK kinase assay, AMARA peptide, 10 μM ATP; read-out: SIK1 IC50
T1 construct: purchased Carna Biosciences 02-131
Procedure, shortened: (§1)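 AMARA peptide phosphorylation by SIK1–3 is quantified through ^33P uptake from a labeled/unlabeled ATP blend. Staurosporine at 10 μM final defines full inhibition, 1% DMSO the uninhibited signal. Quench uses phosphoric acid; counting follows filter capture.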

[2] = molecular target: T2, SIK2 (Homo sapiens, UniProt Q9H0K1); assay: biochemical; details: 33P radioactive SIK kinase assay, AMARA peptide, 10 μM ATP
T2 construct: purchased ThermoFisher Scientific PV4792
T2 sequence (Q9H0K1 whole entry): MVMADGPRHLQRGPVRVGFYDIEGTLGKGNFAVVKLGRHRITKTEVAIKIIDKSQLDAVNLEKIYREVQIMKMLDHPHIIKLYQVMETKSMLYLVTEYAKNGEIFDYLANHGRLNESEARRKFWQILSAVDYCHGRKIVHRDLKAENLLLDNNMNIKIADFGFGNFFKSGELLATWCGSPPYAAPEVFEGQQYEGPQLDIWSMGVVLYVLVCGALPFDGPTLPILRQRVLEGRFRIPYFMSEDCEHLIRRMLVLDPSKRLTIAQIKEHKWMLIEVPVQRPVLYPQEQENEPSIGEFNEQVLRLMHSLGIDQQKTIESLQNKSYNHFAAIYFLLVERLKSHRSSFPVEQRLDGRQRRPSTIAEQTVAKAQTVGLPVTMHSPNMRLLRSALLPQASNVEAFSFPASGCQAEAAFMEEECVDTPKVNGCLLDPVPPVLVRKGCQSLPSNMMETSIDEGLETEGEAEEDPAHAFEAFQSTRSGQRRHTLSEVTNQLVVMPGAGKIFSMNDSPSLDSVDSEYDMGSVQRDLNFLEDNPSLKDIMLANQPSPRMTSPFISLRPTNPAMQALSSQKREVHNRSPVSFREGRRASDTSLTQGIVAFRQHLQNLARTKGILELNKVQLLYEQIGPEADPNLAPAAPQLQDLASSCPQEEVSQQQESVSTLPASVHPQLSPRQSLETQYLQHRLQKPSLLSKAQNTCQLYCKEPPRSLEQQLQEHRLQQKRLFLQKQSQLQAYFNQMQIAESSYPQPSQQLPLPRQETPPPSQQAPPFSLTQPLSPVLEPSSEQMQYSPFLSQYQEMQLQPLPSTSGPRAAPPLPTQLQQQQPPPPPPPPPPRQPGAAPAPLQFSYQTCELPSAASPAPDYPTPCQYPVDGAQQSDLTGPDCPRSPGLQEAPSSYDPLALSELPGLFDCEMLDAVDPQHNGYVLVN
Procedure, shortened: as §1

[3] = molecular target: T3, SIK3 (Homo sapiens, UniProt Q9Y2K2); assay: biochemical
T3 construct: purchased SignalChem S12-11G-100
T3 sequence (Q9Y2K2 whole entry): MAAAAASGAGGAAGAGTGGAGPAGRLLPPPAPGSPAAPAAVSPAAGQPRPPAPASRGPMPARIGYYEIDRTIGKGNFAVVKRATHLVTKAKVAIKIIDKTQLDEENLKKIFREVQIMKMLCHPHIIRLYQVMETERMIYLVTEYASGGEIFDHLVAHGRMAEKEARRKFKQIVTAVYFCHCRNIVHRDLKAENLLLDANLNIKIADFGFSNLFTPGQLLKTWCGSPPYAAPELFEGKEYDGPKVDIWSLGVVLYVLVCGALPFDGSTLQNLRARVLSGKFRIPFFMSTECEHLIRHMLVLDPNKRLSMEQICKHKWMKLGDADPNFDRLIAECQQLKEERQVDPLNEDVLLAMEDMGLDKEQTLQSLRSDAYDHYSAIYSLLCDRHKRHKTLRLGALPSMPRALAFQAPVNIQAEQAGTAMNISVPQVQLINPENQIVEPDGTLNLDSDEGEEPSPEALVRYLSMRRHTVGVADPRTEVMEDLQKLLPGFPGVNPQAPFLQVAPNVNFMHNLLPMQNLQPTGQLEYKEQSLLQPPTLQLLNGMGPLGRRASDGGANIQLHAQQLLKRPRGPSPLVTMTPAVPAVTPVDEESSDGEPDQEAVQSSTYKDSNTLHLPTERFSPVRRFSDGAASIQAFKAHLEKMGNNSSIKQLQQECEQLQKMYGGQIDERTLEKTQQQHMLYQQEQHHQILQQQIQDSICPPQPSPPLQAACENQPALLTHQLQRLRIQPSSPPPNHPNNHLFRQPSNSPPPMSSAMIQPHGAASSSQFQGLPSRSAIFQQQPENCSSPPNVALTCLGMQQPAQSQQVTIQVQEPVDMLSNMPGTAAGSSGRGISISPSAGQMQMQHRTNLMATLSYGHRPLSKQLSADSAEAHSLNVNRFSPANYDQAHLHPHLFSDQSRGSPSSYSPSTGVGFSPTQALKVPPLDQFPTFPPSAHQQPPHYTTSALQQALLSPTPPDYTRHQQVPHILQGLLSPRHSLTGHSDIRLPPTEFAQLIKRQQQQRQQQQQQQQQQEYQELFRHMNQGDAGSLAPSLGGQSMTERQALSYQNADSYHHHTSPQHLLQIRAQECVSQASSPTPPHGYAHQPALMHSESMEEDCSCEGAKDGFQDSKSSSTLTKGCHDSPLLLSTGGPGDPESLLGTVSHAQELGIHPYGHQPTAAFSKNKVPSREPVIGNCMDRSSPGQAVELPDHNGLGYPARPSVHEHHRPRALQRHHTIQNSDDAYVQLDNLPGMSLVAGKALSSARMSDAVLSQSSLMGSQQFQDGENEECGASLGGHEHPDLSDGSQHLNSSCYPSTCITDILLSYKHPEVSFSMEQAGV
Procedure, shortened: as §1

[4] = test system: LPS-induced TNFα secretion in monocyte-derived macrophages (MdM); assay: MdM assay: LPS-triggered TNFα (ELISA); type: cell-based, human; details: Homo sapiens, Macrophage, LPS-triggered TNFα inhibition
Procedure, shortened: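 TNFα ELISA read on supernatants harvested 20 h after LPS (final 200 ng/mL) stimulation. Cells were day-10 macrophages derived from human blood CD14+ monocytes, exposed to 3-fold compound dilutions for 1 h at 37 °C beforehand, with DMSO held at 0.2%.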

[5] = test system: LPS triggered IL-10 secretion in monocyte-derived macrophages (MdM); assay: MdM assay: LPS-triggered IL-10 (ELISA); type: cell-based, human; details: maximal fold change vs LPS only, median across assays
Protocol: This assay evaluates illustrative compounds of the invention for their inhibition of LPS-induced TNFα and LPS triggered IL-10 secretion in monocyte-derived macrophages.
PBMCs are isolated from human blood samples (buffycoats). The buffy coat is aseptically transferred into a 50 mL Falcon tube, and diluted 1/2 in PBS. Falcon tubes are filled with 20 mL Lymphoprep™, on top of which 25 mL of the buffy coat is carefully added, tubes are centrifuged for 35 min at 400 g in temperature controlled centrifuge, without brake, at 25° C. PBMCs are aspirated from the white interface layer between sample and Lymphoprep™. PBMCs are washed five times in PBS.
PBMCs are centrifuged at 300×g for 10 min and resuspended at a density of 1.0E07 cells/80 μL Miltenyi buffer (PBS, pH 7.4, 1% FBS, 2 mM EDTA).
Starting from this point of the protocol all steps are performed on ice. 20 μL of CD14+ micro-beads are added per 1.0E07 cells, the tube is mixed and incubated for 15 min in the fridge at 4° C. Cell suspension volume is adjusted to total volume of 100 mL using Miltenyi buffer, mixed gently and subsequently centrifuged for 10 min at 300× g. Supernantant is discarded and cell pellet is resuspended in 12 mL of Miltenyi buffer.
Four LS columns are placed in the MACS Separator (magnet) from Miltenyi Biotec, and are prewet by rinsing with 3 mL of MACS buffer per column. Three mL of cell suspension is added onto the column (max 1*10^8 of labelled cells/column), and columns are subsequently washed 3 times with 3 mL of Miltenyi buffer.
The columns are removed from the magnets, and 5 mL of Miltenyi buffer are added to the column to flush out the CD14+ fraction by pushing the plunger into the column. The flushed fractions are collected in a fresh 50 mL Falcon and volume is adjusted to 30 mL using Miltenyi buffer, cells are centrifuged for 10 min at 300× g. The obtained cell pellet is resuspended in 10 mL RPMI w/o FBS, and cell density is determined using a hematologic analyser (Sysmex XS-500i).
On day 10, MdMs are triggered and compound is added.
A compound dilution plate is made in 100% DMSO by 3-fold dilution of 10 mM stock solution. An intermediate dilution plate (10× final concentration) is made by diluting the compound dilution plate 50-fold in RPMI medium.
Medium is carefully removed from cell plates using multichannel pipette, and replaced by 80 μL fresh medium. 10 μL of the 10× final concentration compound is added to the cells and incubated for 1 hour at 37° C. before addition of trigger. No trigger conditions/trigger conditions are spiked with equal final DMSO concentrations of 0.2% DMSO. 10 μL of 10×LPS (final conc. 200 ng/mL) solution are added to all wells except for the ‘no trigger wells’ where 10 μL medium is added. Supernatant is collected after 2 h (IL-10 determination) and after 20 h (TNFα determination) of LPS triggering.
Plates are washed three times with PBST, where after 100 μL of Strep-HRP conjugate (0.5 μg/mL final concentration diluted in dilution buffer) is added. Plates are incubated in the dark, at 37° C. for 30 min. Plates are washed three times with PBST. […] 100 μL of substrate solution is added to each well and incubated until brilliant blue color develops. The reaction is stopped by adding 50 μL of 1 M H2SO4, after which absorbance is measured at 450 nm on the SpectraMax i3, Molecular Devices.
To quantify these inductions fold changes (FC) compared to ‘LPS only’ are calculated for each concentration tested and the maximal FC is calculated (IL-10 FCmax):
[formula] wherein ABS=Absorbance measured at 450 nm.
The median maximal FC for test compounds across two or more assays is reported (IL-10FCmax median).

T1 sequence (P57059 whole entry): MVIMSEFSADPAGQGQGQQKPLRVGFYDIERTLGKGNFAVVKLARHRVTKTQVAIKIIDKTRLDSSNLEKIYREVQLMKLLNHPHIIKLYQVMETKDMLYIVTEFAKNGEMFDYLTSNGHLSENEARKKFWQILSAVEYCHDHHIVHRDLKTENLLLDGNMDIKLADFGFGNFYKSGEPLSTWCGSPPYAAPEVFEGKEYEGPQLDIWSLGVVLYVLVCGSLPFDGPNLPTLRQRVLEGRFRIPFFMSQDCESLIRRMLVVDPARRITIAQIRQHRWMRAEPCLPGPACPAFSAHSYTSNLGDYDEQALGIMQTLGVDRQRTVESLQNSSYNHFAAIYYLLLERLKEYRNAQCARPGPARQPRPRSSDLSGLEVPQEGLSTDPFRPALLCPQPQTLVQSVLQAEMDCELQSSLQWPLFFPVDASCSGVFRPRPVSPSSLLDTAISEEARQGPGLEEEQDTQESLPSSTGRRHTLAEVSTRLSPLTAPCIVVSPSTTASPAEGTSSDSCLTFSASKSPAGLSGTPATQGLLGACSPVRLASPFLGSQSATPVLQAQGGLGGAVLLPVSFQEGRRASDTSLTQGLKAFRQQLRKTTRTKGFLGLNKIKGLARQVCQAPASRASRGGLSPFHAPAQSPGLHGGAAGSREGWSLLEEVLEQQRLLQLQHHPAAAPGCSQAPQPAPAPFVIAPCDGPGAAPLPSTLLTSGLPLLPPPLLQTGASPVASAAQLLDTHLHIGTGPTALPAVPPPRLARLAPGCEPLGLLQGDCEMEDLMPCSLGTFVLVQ

Row | SMILES | IC50 [1] [nM] | IC50 [2] [nM] | IC50 [3] [nM] | EC50 [4] [nM] | IL-10 FCmax median [5]
1 | CCNC(=O)c1c(OC)cc(-n2cnc3cc(-c4cnn(CCN5CCOCC5)c4)ccc32)cc1OC [compound 4, N-ethyl-2,6-dimethoxy-4-[5-[1-(2-morpholinoethyl)pyrazol-4-yl]benzimidazol-1-yl]benzamide] | 10 to 100 | 10 to 100 | 10 to 100 | 1000 to 5000 | ++ (>1.5-4.5)
2 | CCNC(=O)c1c(OC)cc(-n2cnc3cc(-c4ccc(N5CCOCC5)nc4)ccc32)cc1OC [compound 3, N-ethyl-2,6-dimethoxy-4-[5-(6-morpholino-3-pyridyl)benzimidazol-1-yl]benzamide] | 10 to 100 | 10 to 100 | 10 to 100 | 100 to 1000 | ++ (>1.5-4.5)
3 | CCCNC(=O)c1c(OC)cc(-n2cnc3cc(-c4cnn(CC)c4)ccc32)cc1OC [compound 22, 4-[5-(1-ethylpyrazol-4-yl)benzimidazol-1-yl]-2,6-dimethoxy-N-propyl-benzamide] | – | – | – | 100 to 1000 | ++ (>1.5-4.5)
4 | COc1cc(-n2cnc3cc(-c4cnn(C)c4)ccc32)cc(OC(F)F)c1C(=O)NC1CC1 [Cpd 53, N-cyclopropyl-2-(difluoromethoxy)-6-methoxy-4-[5-(1-methylpyrazol-4-yl)benzimidazol-1-yl]benzamide] | – | – | – | – | ++ (>1.5-4.5)
5 | COc1cc(-n2cnc3cc(-c4cnn(C)c4)ccc32)cc(OC)c1C(=O)NC1CCCC[C@H]1N (stereo in doubt) [compound 139, N-[(1R,2R)-2-aminocyclohexyl]-2,6-dimethoxy-4-[5-(1-methylpyrazol-4-yl)benzimidazol-1-yl]benzamide] | 0.01 to 10 | 0.01 to 10 | 0.01 to 10 | 1000 to 5000 | –

The next lines start with results.

Row | IC50 [1] [nM] | IC50 [2] [nM] | IC50 [3] [nM] | EC50 [4] [nM] | SMILES | IL-10 FCmax median [5]
6 | 10 to 100 | 10 to 100 | 10 to 100 | 100 to 1000 | CCNC(=O)c1c(OC)cc(-c2cnn3cc(-c4cnn(CC)c4)cnc23)cc1OC [compound 9, N-ethyl-4-[6-(1-ethylpyrazol-4-yl)pyrazolo[1,5-a]pyrimidin-3-yl]-2,6-dimethoxy-benzamide] | ++ (>1.5-4.5)
7 | 10 to 100 | 10 to 100 | 10 to 100 | 100 to 1000 | COc1cc(-n2cnc3cc(-c4cnoc4)ccc32)cc(OC)c1C(=O)NCC(F)(F)F [Cpd 51, 4-(5-isoxazol-4-ylbenzimidazol-1-yl)-2,6-dimethoxy-N-(2,2,2-trifluoroethyl)benzamide] | ++ (>1.5-4.5)
8 | 10 to 100 | 0.01 to 10 | 0.01 to 10 | 0.1 to 100 | COc1cc(-n2cnc3cc(-c4cnn(CC#N)c4)ccc32)cc(OC)c1C(=O)NCC(F)(F)F [compound 40, 4-[5-[1-(cyanomethyl)pyrazol-4-yl]benzimidazol-1-yl]-2,6-dimethoxy-N-(2,2,2-trifIuoroethyl)benzamide] | ++ (>1.5-4.5)
9 | 0.01 to 10 | 0.01 to 10 | 0.01 to 10 | 0.1 to 100 | CCNC(=O)c1c(OC)cc(-c2cnc3cc(-c4cnn(C5CCN(C)CC5)c4)ccn23)cc1OC(F)F [compound 148, 2-(difluoromethoxy)-N-ethyl-6-methoxy-4-[7-[1-(1-methyl-4-piperidyl)pvrazol-4-yl]imidazo[1,2-a]pyridin-3-yl]benzamide] | ++ (>1.5-4.5)
10 | 10 to 100 | 0.01 to 10 | 10 to 100 | 0.1 to 100 | COc1cc(-n2cnc3cc(-c4cnn(C)c4)ccc32)cc(OC)c1C(=O)N[C@@H](C)C(F)(F)F [compound 80, 2,6-dimethoxy-4-[5-(1-methylpyrazol-4-yl)benzimidazol-1-yl]-N-[(1S)-2,2,2-trifluoro-1-methyl-ethyl]benzamide] | ++ (>1.5-4.5)
